According to PubChem BioAssay AID179 (DTP/NCI, 2004):
Active and inactive are the calls of the source.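 The calls were made as follows: active = compounds giving half or more protection of infected cells from virus-caused growth loss, again on retest; inactive = the rest.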 Where a SMILES comes first, the peptide text is derived from it. [ ]: non-standard residue; d: D form. The star is where a group is joined. Ac5c = NC1(C(=O)O)CCCC1; Boc = CC(C)(C)OC(=O)*; tBu = CC(C)(C)*

Tested on: CEM cells HIV-1 protection, formazan growth assay
Assay: NCI AIDS Antiviral Assay
Details: for IC50: measured here: growth of uninfected CEM cells
Summary of the method: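 Human CEM cells, uninfected and HIV-1-infected, received five drug concentrations, and growth was read by soluble formazan assay. Compounds giving at least 50% protection were retested; reproducible 100% protection defined confirmed active.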

Compound | EC50 | IC50 | outcome
CCC(/C(=N/NC(=O)C[N+](C)(C)C)c1ccccc1)C1OC(=O)c2ccccc21 (configuration not stated) | > 575 µM | > 575 µM | –
CCc1n[nH]c(=O)n1NC(=O)/C=C\C(=O)O | > 200 µM | > 200 µM | –
COc1ccc(Cc2c3cc(OC)c(OC)cc3cc[n+]2C)cc1 | > 550 µM | 107 µM | –
CC(OC(C)(C)C)C1NC(=O)C(CCCCNC(=O)OC(C)(C)C)NC(=O)C(Cc2c[nH]c3ccccc23)NC(=O)C(Cc2ccccc2)NC(=O)C2(CCCC2)NC(=O)C(Cc2ccccc2)NC1=O (configuration not stated) (cyclo([Ac5c]FWK(Boc)T(tBu)F); configuration not given here) | > 100 µM | 18.6 µM | –
COc1ccc2c(c1)CSC(c1ccccc1)C2=O (configuration not stated) | > 97.7 µM | 55 µM | –
NCC(O)c1ccc(Nc2ccnc3cc(Cl)ccc23)cc1 (configuration not stated) | > 93.3 µM | 38 µM | –
Cn1c(N)c2c(=O)n(C)c3c(c2c(C#N)c1=O)CCSc1ccccc1-3 | > 9.33 µM | > 9.33 µM | –
CCc1c(Cc2ccccc2)n(COCCO[Si](C)(C)C(C)(C)C)c(=O)[nH]c1=O | > 34.7 µM | 12.6 µM | –
C=CCCCn1ccc2ccccc21 | – | – | inactive
O=C1C=Cc2cc(Br)ccc2C12CCc1c(O)ccc3cc(Br)cc2c13 (configuration not stated) | – | – | inactive
CCN1CCCc2cc3c(C(F)(F)F)cc(=O)oc3cc21 | > 17.4 µM | > 17.4 µM | –
O=C1CC(c2ccccc2)n2c(nc3ccccc32)N1 (configuration not stated) | > 151 µM | 67.6 µM | –
CC(=O)N/N=C(\N)c1nc2c(n3nc(C)nc13)CCCC2 | > 200 µM | 91.2 µM | –
CCCCOC(=O)C(O)Cc1ccoc1 (configuration not stated) | > 200 µM | > 200 µM | –
O=c1[nH]nc(Cc2ccccc2)n1/N=C/c1ccccc1O | > 200 µM | 85.1 µM | –
CC1CCCc2c(-c3ccc(Cl)cc3)nc(N)c(C#N)c21 (configuration not stated) | > 200 µM | 26.3 µM | –
CCCCCC[n+]1noc(N)c1-c1ccc(-c2c(N)on[n+]2CCCCCC)cc1 | > 200 µM | 2.57 µM | –

Compound | EC50 | IC50 | outcome
O=c1oc2ccccc2c(O)c1C(c1ccc(-c2ccccc2)cc1)c1c(O)c2ccccc2oc1=O | > 200 µM | 35.5 µM | –
CCCCCCCCCCCCCC(=O)OC1C(C)C2(O)C(C=C(CO)CC3(O)C(O)C(C)=CC32)C2C(C)(C)C12OC(C)=O (configuration not stated) | – | – | active
COc1ccc(CCNC(=S)N/C=C\c2nc3ccccc3[nH]c2=O)cc1OC | – | – | inactive
O=c1cc2c(Cl)cccc2n[nH]1 | > 195 µM | > 195 µM | –
N#Cc1nc(C2CCC(=O)O2)oc1N (configuration not stated) | > 200 µM | > 200 µM | –
N#C/C(=C\c1ccc2[nH]ccc2c1)C(=O)NCCCCNC(=O)/C(C#N)=C/c1ccc2[nH]ccc2c1 | > 7.94 µM | > 7.94 µM | –
CC(=O)COP(=O)(OCC(C)=O)OCC1OC(n2cc(C)c(=O)[nH]c2=O)CC1N=[N+]=[N-] (configuration not stated) | 0.000631 µM | 2 µM | –
Nc1nncs1 | > 1780 µM | 871 µM | –
OC(c1ccc(F)cc1)C(F)(F)c1nc2ccccc2o1 (configuration not stated) | > 200 µM | > 200 µM | –
Cc1ccc(C(=O)CC2(O)C(=O)Nc3c(C)cc(Cl)cc32)cc1 (configuration not stated) | > 110 µM | > 110 µM | –
O=C1CCCC/C1=C/c1ccccc1 | > 200 µM | 12.9 µM | –
Cc1cc(N(CCC#N)CCC#N)ccc1/C=C(\NC(=O)/C=C/c1ccccc1)C(=O)N=[N+]=[N-] | – | – | inactive
CN(/N=C/c1cccc2cccnc12)c1ccc(Cl)cc1[N+](=O)[O-] | > 200 µM | 178 µM | –
COc1ccc2c3c([nH]c(=O)c2c1C(=O)O)-c1ccccc1CC3 | > 16.2 µM | > 16.2 µM | –
COc1ccc(C(=O)C2CCC(C(=O)O)C2)cc1 (configuration not stated) | – | – | inactive
Cc1ccc2nc(-c3ccc4nc(-c5ccc(N=Nc6ccc(-c7nc8ccc(-c9nc%10ccc(C)c(S(=O)(=O)O)c%10s9)cc8s7)cc6)cc5)sc4c3)sc2c1S(=O)(=O)O | 19.5 µM | > 200 µM | –
COC(=O)[C@]1(C)CCC[C@@]2(C)C1CC[C@@]13C=C(C(C)C)[C@@H](CC1=O)CC23 (some centres not stated) | > 200 µM | 36.3 µM | –
